Results published in the supplement of paper PMC11451515.

Assays:
Assay in all cases: AUC of viability dose-response curve (% viability x log10 dose units); higher = less sensitive
Conditions in all cases: 48 h
[1] = test system: NOMO1
How it was run: (§1)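 In 1536-well plates, leukemia cells adapted to each medium (500 or 1000 cells/well) were exposed for 48 h at 37°C to library compounds in DMSO across 11 threefold doses, 47 μM down to 0.79 nM. Viability was read by CellTiter-Glo One luminescence and normalised per plate to DMSO and cell-free wells. A four-parameter log-logistic fit over log10 doses was integrated by trapezoidal rule. This yielded the area under the curve, with over-full-viability curves scaled and quality-control failures dropped.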

[2] = test system: P12-Ichikawa
How it was run: as §1

[3] = test system: SEM cells
How it was run: as §1

[4] = RPMI 5 mM glucose + 10% dialyzed FBS

Compound | AUC of viability dose-response curve ([1]; HPLM + 10% dialyzed FBS) | AUC of viability dose-response curve ([1]; RPMI 5 mM glucose + 10% FBS) | AUC of viability dose-response curve [1, 4] | AUC of viability dose-response curve ([2]; HPLM + 10% dialyzed FBS) | AUC of viability dose-response curve ([2]; RPMI 5 mM glucose + 10% FBS) | AUC of viability dose-response curve [2, 4] | AUC of viability dose-response curve ([3]; HPLM + 10% dialyzed FBS) | AUC of viability dose-response curve ([3]; RPMI 5 mM glucose + 10% FBS) | AUC of viability dose-response curve [3, 4]
COC(=O)Nc1nc2ccc([S+]([O-])c3ccccc3)cc2[nH]1 (centres undefined) | 460 | 468 | 466 | 441 | 454 | 461 | 417 | 438 | 441
C[N]1N=CC=C1C/2=C(\C)N(C(=O)C(=C2)/C(=O)NCC3=NC=C(C=C3)[S+](C)([O-])=O)C4=CC=CC(=C4)C(F)(F)F |  |  |  | 462 | 454 | 455 | 466 | 453 | 468
N=C(N)NC(=N)N1CCOCC1 | 465 | 461 | 447 | 473 | 454 | 463 | 472 | 467 | 460
CN(C)[C@@H](CCOc1cccc2ccccc12)c1ccccc1 | 433 | 461 | 456 | 455 | 433 | 467 | 400 | 444 | 469
COC(=O)[C@H](c1ccccc1Cl)N1CCc2sccc2C1 | 357 | 328 | 343 | 414 | 416 | 427 | 449 | 440 | 432
COc1ccc(-c2oc3cc(OC)ccc3c2C(=O)c2ccc(C#N)cc2)cc1 | 326 | 311 | 321 | 354 | 345 | 374 | 455 | 460 | 451
C1COC(NC(C2CC2)C2CC2)=N1 | 428 | 415 | 408 | 425 | 459 | 404 |  |  | 
Oc1ccc([C@@H]2Oc3ccc(O)cc3[C@@H]3CCC[C@@H]32)cc1 | 412 | 423 | 406 | 394 | 372 | 349 |  |  | 
Cc1ccc([S+](=O)([O-])Nc2cc(Cl)ccc2C(=O)Nc2nc(-c3ccccc3)cs2)cc1 | 455 | 409 | 447 | 458 | 457 | 450 |  |  | 
Cc1cnc(Nc2ccc(CN3CCOCC3)cc2)nc1Nc1cccc([S+](=O)([O-])NC(C)(C)C)c1 |  |  |  | 299 | 300 | 292 |  |  | 
CS[C@H]1SC[C@@H]2C(=O)N(C)[C@H](C(C)C)C(=O)OC[C@H](NC(=O)c3cnc4ccccc4n3)C(=O)N[C@H](C)C(=O)N(C)[C@H]1C(=O)N(C)[C@H](C(C)C)C(=O)OC[C@H](NC(=O)c1cnc3ccccc3n1)C(=O)N[C@H](C)C(=O)N2C | 140 | 142 | 141 | 176 | 148 | 140 |  |  | 
CCN(CC)CCCC(C)Nc1nc(C)cc(Nc2ccc3nc(C)cc(N)c3c2)n1 (centres undefined) | 464 | 470 | 468 | 461 | 464 | 469 |  |  | 
